Measurements published in the NIST ThermoML archive (doi:10.1016/j.jct.2017.09.006).
± gives the expanded uncertainty stated by the source.

Columns and labels:
[1] = Molar enthalpy of transition or fusion; settings: Crystal; DSC
[2] = Crystal; DTA

Row | Structure (SMILES) | Molar enthalpy of transition or fusion [1] [kJ/mol] | Normal melting temperature [2] [°C]
1 | Cc1ccc2ccc(C)cc2c1 [2,7-dimethylnaphthalene] | 25.3 ± 1.1 | 95.0 ± 0.5
2 | COC(=O)c1cccc(C(=O)OC)c1 [dimethyl 1,3-benzenedicarboxylate] | 27.9 ± 0.7 | 67.2 ± 0.5
